Structures can show the parent of a compound that is named as a salt.

For the assay, the target named is T1, recombinant purified human EHMT2 913-1193 (Homo sapiens, UniProt Q96KQ7).
T1 construct: Recombinant purified human EHMT2 913-1193 (55 μM) synthesized by Viva was used for all experiments; purchased Viva
T1 sequence (Q96KQ7 913-1193): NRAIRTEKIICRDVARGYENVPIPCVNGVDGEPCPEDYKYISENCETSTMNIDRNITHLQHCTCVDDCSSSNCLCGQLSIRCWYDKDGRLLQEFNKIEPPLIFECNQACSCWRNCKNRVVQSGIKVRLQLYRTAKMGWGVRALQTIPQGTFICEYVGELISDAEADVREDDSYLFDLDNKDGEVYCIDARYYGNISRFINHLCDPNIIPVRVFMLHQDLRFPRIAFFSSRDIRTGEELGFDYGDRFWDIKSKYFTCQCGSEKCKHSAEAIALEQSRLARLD
The assay is described as follows: EHMT2 enzyme assay on histone peptide substrate (3H-SAM Flashplate). As to conditions: read-out: EHMT2 PEP (IC50 μM). The class given is biochemical. Summed up: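 Compounds (10-point 3-fold series, top 50 μM final, 2% DMSO) preincubated 30 min with 0.031 nM EHMT2 in 20 mM Bicine pH 7.5, 1 mM TCEP; reaction started with 3H-SAM and biotinylated H3 1-15 peptide, both at Km, run 60 min at room temperature. Flashplate capture; IC50 from four-parameter fit, triplicates.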
By IC50 is commonly meant the concentration that gives 50% inhibition. On to `CNc1cc(C)nc(Nc2ccc(OC)c(-n3cc4c(n3)CCN(C)C4)c2)n1` [Compound 2], for which the half-maximal inhibitory concentration (IC50) was under 0.1 µM. As to `CNc1cc(C)nc(Nc2ccc(OC)c(-n3cc4c(n3)CN(C)CC4)c2)n1` [Compound 3], the IC50 is 1 to 10 µM. For `CNc1cc(C)nc(Nc2ccc(OC)c(-n3ccc(CN4CCCC4)n3)c2)n1` [Compound 4, trifluoroacetic acid], the IC50 lay within 1 to 10 µM.

Consider `CNc1cc(C)nc(Nc2ccc(OC)c(-n3cc(CN4CCCC4)cn3)c2)n1` [Compound 5, 2-N-[4-methoxy-3-[4-(pyrrolidin-1-ylmethyl)-1H-pyrazol-1-yl]phenyl]-4-N,6-dimethylpyrimidine-2,4-diamine], for which the IC50 was in the range of 1 to 10 µM.

As for `CNc1cc(C)nc(Nc2ccc(OC)c(-n3cc4ccncc4n3)c2)n1` [Compound 41], the IC50 was over 10 µM. Turning to `CNc1cc(C)nc(Nc2ccc(OC)c(-c3ccc4cc[nH]c4n3)c2)n1` [Compound 42], the IC50 was over 10 µM. For `CNc1cc(C)nc(Nc2ccc(OC)c(-n3cc4c(n3)CCOC4)c2)n1` [Compound 43], the IC50 is over 10 µM. In the case of `CNc1cc(C)nc(Nc2ccc(OC)c(-c3nc4cnccc4[nH]3)c2)n1` [Compound 47], the IC50 lay in the range of 1 to 10 µM. On to `CNc1cc(C)nc(Nc2ccc(OC)c(-c3cc4cnccc4[nH]3)c2)n1` [Compound 48], for which the IC50 was in the range of 0.1 to 1 µM. As for `CCn1cc(NC(=O)c2cc(Nc3nc(C)cc(NC)n3)ccc2OC)cn1` [Compound 49], the IC50 is over 10 µM. As for `CNc1cc(C)nc(Nc2cnc(OC)c(-n3cc4c(n3)CCNC4)c2)n1` [Compound 50], the IC50 is 0.1 to 1 µM.

In the case of `CNc1cc(C)nc(Nc2ccc(OC)c(-n3cc4c(n3)CCCN4)c2)n1` [Compound 56, N2-(4-methoxy-3-(4,5,6,7-tetrahydro-2H-pyrazolo[4,3-b]pyridin-2-yl)phenyl)-N4,6-dimethylpyrimidine-2,4-diamine hydrochloride], the 50% inhibitory concentration (IC50) was over 10 µM. `CNc1cc(C)nc(Nc2cnc(OC)c(-n3cc4c(n3)CCN(C)C4)c2)n1` [Compound 57]: the IC50 was 1 to 10 µM. Consider `CNc1cc(C)nc(Nc2cnc(OC)c(-c3nc4cnccn4n3)c2)n1` [Compound 60], for which the IC50 was over 10 µM. `CNc1cc(C)nc(Nc2ccc(OC)c(-n3cnc(CN(C)C)n3)c2)n1` [Compound 61]: the IC50 is over 10 µM. Turning to `CNc1cc(C)nc(Nc2cnc(OC)c(-n3cnc(CN(C)C)n3)c2)n1` [Compound 62], the 50% inhibitory concentration (IC50) is over 10 µM. With `CNc1cc(C)nc(Nc2cc(-n3cc4c(n3)CCN(C)C4)c(OC)cn2)n1` [Compound 65], the concentration for half-maximal inhibition (IC50) is over 10 µM. Take `CNc1cc(C)nc(Nc2ccc(OC)c(-n3cc(CN(C)C)nn3)c2)n1` [Compound 66]: the IC50 was in the range of 0.1 to 1 µM. In the case of `CNc1cc(C)nc(Nc2ccc(OC)c(-n3cnc(CN4CCC4)n3)c2)n1` [Compound 67], the IC50 is over 10 µM. On to `CNc1cc(C)nc(Nc2ccc(OC)c(-n3cnc(CN4CC(F)C4)n3)c2)n1` [Compound 68], for which the concentration for half-maximal inhibition (IC50) was over 10 µM. `CNc1cc(C)nc(Nc2ccc(OC)c(-n3cc4c(n3)CCN(C3COC3)C4)c2)n1` [Compound 69]: the IC50 is over 10 µM. For `CCN1CCc2nn(-c3cc(Nc4nc(C)cc(NC)n4)ccc3OC)cc2C1` [Compound 70], the IC50 lay within 0.1 to 1 µM. The result for `CNc1cc(C)nc(Nc2ccc(OC)c(-c3nnc(CN(C)C)[nH]3)c2)n1` [Compound 73] reads over 10 µM; that for `CNc1cc(C)nc(Nc2cnc(OC)c(-n3cc(CN(C)C)cn3)c2)n1` [Compound 74], 0.1 to 1 µM; that for `CNc1cc(C)nc(Nc2ccc(OC)c(-n3ncc4c3CN(C(C)=O)CC4)c2)n1` [Compound 75], over 10 µM.

As for `CNc1cc(C)nc(Nc2ccc(OC)c(-n3nccc3CNC(C)=O)c2)n1` [Compound 76], the IC50 is over 10 µM. The result for `CNc1cc(C)nc(Nc2ccc(OC)c(-c3nnc4n3CCN(C(=O)OC(C)(C)C)C4)c2)n1` [Compound 77] reads over 10 µM. Regarding `CNc1cc(C)nc(Nc2ccc(OC)c(-c3nc4c([nH]3)CNCC4)c2)n1` [Compound 78], the IC50 lay in the range of 1 to 10 µM. The result for `CNc1cc(C)nc(Nc2ccc(OC)c(-c3nc4c([nH]3)CN(C)CC4)c2)n1` [Compound 79] reads 1 to 10 µM; that for `CNc1cc(C)nc(Nc2ccc(OC)c(-n3cc(C)c4c3CCN(C)C4)c2)n1` [Compound 81], 1 to 10 µM. Regarding `CNc1cc(C)nc(Nc2ccc(OC)c(-n3cc4c(n3)CCN(C3CC3)C4)c2)n1` [Compound 82], the IC50 was in the range of 0.1 to 1 µM. Consider `COc1ncc(Nc2nc(C)cc(NCC3COC3)n2)cc1-n1cc(CN(C)C)nn1` [Compound 86], for which the IC50 is over 10 µM.

As for `CNC(=O)CCNc1cc(C)nc(Nc2ccc(OC)c(-n3cc4c(n3)CCN(C)C4)c2)n1` [Compound 87], the IC50 is 0.1 to 1 µM. Take `CNC(=O)N1CC(CNc2cc(C)nc(Nc3ccc(OC)c(-n4cc5c(n4)CCN(C)C5)c3)n2)C1` [Compound 88]: the IC50 lay in the range of 0.1 to 1 µM. The result for `CNc1cc(C)nc(Nc2ccc(OC)c(-c3cc4cnccn4n3)c2)n1` [Compound 93] reads over 10 µM. Take `CNc1cc(C)nc(Nc2ccc(OC)c(-n3cc(C)c(CNC(C)=O)n3)c2)n1` [Compound 94]: the concentration for half-maximal inhibition (IC50) is over 10 µM.

On to `CNc1cc(C)nc(Nc2ccc(OC)c(-n3ccc(CNC(C)=O)n3)c2)n1` [Compound 95], for which the IC50 was over 10 µM. As to `CNc1cc(C)nc(Nc2ccc(OC)c(-n3ccc(CN(C)C(C)=O)n3)c2)n1` [Compound 96], the IC50 is over 10 µM. Regarding `CNc1cc(C)nc(Nc2ccc(OC)c(-n3cc4c(C)nccc4n3)c2)n1` [Compound 99], the concentration for half-maximal inhibition (IC50) fell in the range of 1 to 10 µM. The result for `CNc1cc(C)nc(Nc2ccc(OC)c(-n3cc4c(OC)nccc4n3)c2)n1` [Compound 100] reads over 10 µM. With `CNc1cc(C)nc(Nc2ccc(OC)c(-n3cc(C)c(CN(C)C)n3)c2)n1` [Compound 102], the IC50 is 1 to 10 µM.

`CNC(=O)c1cn(-c2cc(Nc3nc(C)cc(NC)n3)ccc2OC)nc1C` [Compound 103]: the IC50 is over 10 µM. On to `CNC(=O)c1cnn(-c2cc(Nc3nc(C)cc(NC)n3)ccc2OC)c1` [Compound 104], for which the concentration for half-maximal inhibition (IC50) is over 10 µM.

In the case of `CNC(=O)c1c(C)nn(-c2cc(Nc3nc(C)cc(NC)n3)ccc2OC)c1C` [Compound 105], the IC50 was over 10 µM. On to `CNCc1c(C)nn(-c2cc(Nc3nc(C)cc(NC)n3)ccc2OC)c1C` [Compound 106], for which the IC50 was over 10 µM. The result for `CNc1cc(C)nc(Nc2ccc(OC)c(-n3cc(CN(C)C)cn3)c2)n1` [Compound 109, N2-(3-(4-((dimethylamino)methyl)-1H-pyrazol-1-yl)-4-methoxyphenyl)-N4,6-dimethylpyrimidine-2,4-diamine] reads under 0.1 µM; that for `CNc1cc(C)nc(Nc2ccc(OC)c(-n3ncc4c3CCNC4)c2)n1` [Compound 113, N2-(4-methoxy-3-(4,5,6,7-tetrahydro-1H-pyrazolo[4,3-c]pyridin-1-yl)phenyl)-N4,6-dimethylpyrimidine-2,4-diamine], under 0.1 µM. The result for `CNc1cc(C2CCOCC2)c2cc(OC)c(-n3cc(CN(C)C)nn3)cc2n1` [Compound 116] reads 1 to 10 µM.

Take `CNC(=O)c1cn(-c2cc(Nc3nc(C)cc(NC)n3)ccc2OC)nn1` [Compound 117]: the IC50 is over 10 µM. On to `CNc1cc(C)nc(Nc2ccc(OC)c(-n3ncc4ncccc43)c2)n1` [Compound 119], for which the IC50 was over 10 µM.

Take `CNc1cc(C)nc(Nc2ccc(OC)c(-n3cc(CN4CCC4)nn3)c2)n1` [Compound 121]: the IC50 lay within 0.1 to 1 µM.

As to `CNCc1cn(-c2cc3nc(NC)cc(C)c3cc2OC)nn1` [Compound 122], the IC50 was in the range of 1 to 10 µM. Turning to `CNc1cc(C)c2cc(OC)c(-n3cc(C4CCCN4)nn3)cc2n1` (stereo not shown) [Compound 125], the IC50 fell in the range of 0.1 to 1 µM.

`CNC(=O)c1nn(-c2cc(Nc3nc(C)cc(NC)n3)ccc2OC)cc1C` [Compound 134]: the half-maximal inhibitory concentration (IC50) is over 10 µM.

Take `CNc1cc(C)nc(Nc2ccc(OC)c(-n3cc(C4CCCN4C)nn3)c2)n1` (stereo not shown) [Compound 136]: the IC50 lay in the range of 0.1 to 1 µM. Take `CNc1cc(C)nc(Nc2ccc(OC)c(-n3cc(C4CCCN4)nn3)c2)n1` (stereo not shown) [Compound 137, N2-(4-methoxy-3-(4-(pyrrolidin-2-yl)-1H-1,2,3-triazol-1-yl)phenyl)-N4,6-dimethylpyrimidine-2,4-diamine]: the half-maximal inhibitory concentration (IC50) is under 0.1 µM. For the compound `CNc1cc(C)nc(Nc2ccc(OC)c(-n3nnc(C)c3CN(C)C)c2)n1` [Compound 138], the IC50 is over 10 µM. Consider `CNc1cc(C)nc(Nc2ccc(OC)c(-n3nnc(CN(C)C)c3C)c2)n1` [Compound 139], for which the IC50 was over 10 µM.

Turning to `CCN(CC)Cc1cn(-c2cc(Nc3nc(C)cc(NC)n3)ccc2OC)nn1` [Compound 143], the IC50 lay in the range of 0.1 to 1 µM. For `CNc1cc(C)nc(Nc2ccc(OC)c(-n3cc4cc(C)ccc4n3)c2)n1` [Compound 144], the IC50 was in the range of 1 to 10 µM. Consider `CNc1cc(C)nc(Nc2ccc(OC)c(-n3cc4cc(C5CC5)ccc4n3)c2)n1` [Compound 145], for which the half-maximal inhibitory concentration (IC50) is over 10 µM.

Values taken from patent publication US20220235065A1 (Epizyme, Inc., priority 2016, published 2022).
